Experimental data reported in US20260166159A1, “KRAS G12D DEGRADATION AGENT, AND PREPARATION METHOD AND USE THEREFOR” (LEADINGTAC PHARMACEUTICAL (SHAOXING) CO., LTD., priority 2022, published 2026).

Legend:
Format in all cases: cell-based
KRAS-G12D [1] = molecular target: T1, KRAS-G12D (Homo sapiens, UniProt P01116, G12D); assay: KRAS-G12D degradation assay (Western Blot), AGS cells; details: 24 h
T1 construct: endogenous in cells; host or cells: A-427 (ATCC), AGS, AsPc-1, Panc 04.03
Experimental: (§1) The degradation effects of the compounds on KRAS-G12D were investigated on KRAS G12D mutant human lung cancer cell A-427 (ATCC), KRAS G12D mutant human gastric cancer cell AGS, KRAS G12D mutant human metastatic pancreatic cancer cell AsPc-1, and KRAS G12D mutant human pancreatic adenocarcinoma cell Panc 04.03. The specific procedures were as follows: 0.95 mL of cells were seeded into each well of a 24-well cell culture plate to achieve a cell density of 5×10^5 cells/well; and the cell plate was incubated in an incubator at 37° C. with 5% CO2 overnight. Then 50 μL of the compound solution after dilution was added to each of the wells with the corresponding cells, so that the final concentration of the compound was in a range of 0.03-3000 nM. The final concentration of DMSO was 0.25%. After the compounds were added, the cell plate was incubated in the incubator at 37° C. with 5% CO2 for 24 h. The culture medium in the 24-well cell culture plate was removed, and the plate was washed twice with 1×PBS (KeyGEN). 120 μL of RIPA (strong) lysis buffer (Beyotime) supplemented with 1 mM phenylmethylsulfonyl fluoride, a protease inhibitor mixture (Beyotime), and a protease phosphatase inhibitor mixture (Beyotime) was added to lyse adherent A-427 cells at the bottom of the cell culture plate. After the plate was left to stand on ice for 30 min, the protein lysate in each well was transferred to a 1.5 mL centrifuge tube and centrifuged at 15000 g for 20 min at 4° C. The cell lysate supernatants after centrifugation were cryopreserved in a refrigerator at −80° C. for later use.
(§2) After the samples of the cell lysate supernatants that had been prepared were thawed from the refrigerator at −80° C., the total protein concentrations of the cell lysates were determined using a BCA protein quantification kit (Tiangen). The total protein concentrations of the samples were then adjusted to 0.5 μg/μL with PBS and 5×SDS-PAGE protein loading buffer (Beyotime), and the samples were incubated in a water bath at 100° C. for 15 min. The samples were then incubated in an ice bath for 5 min and centrifuged at 14000 g for 1 min at 4° C., and the supernatants were mixed well as loading samples for the Western Blot assay. The samples were loaded into wells of a 10% precast gel (KeyGEN) with a loading volume of 10 μL (total protein: 5 μg), a sufficient Tris-MOPS-SDS running buffer (Adamas) was added, and then electrophoresis was performed at a constant voltage of 120 V for 55 min. After the electrophoresis, the proteins on the gel were transferred to PVDF membranes at a constant current of 250 mA for 55 min. After the membrane transfer, the PVDF membranes were incubated in 1× Quick Block blocking buffer (Beyotime) at room temperature for 30 min. After the blocking, the PVDF membranes were separately incubated at 4° C. overnight with the KRAS antibody (Abcam) diluted in a ratio of 1:1000 and the […] antibody (Abcam) diluted in a ratio of 1:2000 in 5% BSA as the diluent, and then washed with 1×TBST buffer (2.4 g of Tris, 8.8 g of NaCl, 1.5 mL of Tween 20, with pH adjusted to 7.4, with the volume brought to 1 L) 3 times for 10 min/time. The membranes were incubated with a secondary antibody (Abcam) diluted in 5% BSA at room temperature for 2 h, and then washed with 1×TBST buffer 3 times for 10 min/time. Finally, the membranes were incubated with Clarity Western ECL Substrate (BIO-RAD) for 5 min for luminescence and color development, and a ChemiScope 6200 Touch chemiluminescence imaging system (Clinx) was used for color development and protein mapping. Gray value analysis of the protein maps was performed using the chemiluminescence analysis software (Clinx). The gray correction value for each sample was calculated using the formula: gray correction value=(gray value of target protein/gray value of corresponding internal reference)×10^3. Then degradation rates were calculated by comparison with the gray correction value of the control group. […]

KRAS-G12D [2] = molecular target: T1, KRAS-G12D; assay: KRAS-G12D degradation assay (Western Blot), AsPc-1 cells; details: for DC50: 24 h; for Dmax: ASPC1, 24 h
In short: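 Western blotting of lysates (5 μg protein) quantified KRAS against a β-actin reference after 24 h exposure to compound at final 0.03–3000 nM in 0.25% DMSO. Cells were A-427, AGS, AsPc-1 or Panc 04.03, all KRAS G12D, at 5×10^5/well. Degradation versus control yielded DC50 and Dmax.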

KRAS-G12D [3] = molecular target: T1, KRAS-G12D; assay: KRAS-G12D degradation assay (Western Blot), Panc 04.03 cells; details: 24 h
Experimental: as §1, §2

[4] = test system: KRAS G12D mutant human pancreatic cancer cell HPAC; assay: 3D cell proliferation inhibition assay, HPAC; details: 168 h, 7 days, CTG
In short: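 Compound dilutions are added to low-adsorption wells, then cells at 5×10^2 cells/well. Final compound range is 10000–0.026 nM, with 0.2% DMSO. After 7 days at 37 °C with 5% CO2, CTG reagent is added and luminescence is read 60 min later. IC50 is fitted from inhibition relative to DMSO and medium controls.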

T1 sequence (P01116 1-188 isoform P01116-2 G12D): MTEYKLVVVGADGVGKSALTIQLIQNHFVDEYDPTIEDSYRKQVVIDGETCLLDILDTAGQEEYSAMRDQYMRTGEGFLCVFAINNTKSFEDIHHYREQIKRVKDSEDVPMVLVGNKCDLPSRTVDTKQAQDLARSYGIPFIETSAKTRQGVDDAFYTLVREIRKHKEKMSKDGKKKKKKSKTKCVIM

| Structure (SMILES) | DC50 (KRAS-G12D [1]) | Dmax (KRAS-G12D [1]) | DC50 (KRAS-G12D [2]) | Dmax (KRAS-G12D [2]) | DC50 (KRAS-G12D [3]) | Dmax (KRAS-G12D [3]) | IC50 [4] |
| --- | --- | --- | --- | --- | --- | --- | --- |
| C#Cc1c(F)ccc2cc(O)cc(-c3ncc4c(N5CC6CCC(C5)N6)nc(OCC5(CN6CCN(CC7CCC8(CC7)CCN(C(=O)c7ccc(Cl)c(N9CCC(=O)NC9=O)c7)CC8)CC6)CC5)nc4c3F)c12 [Example 6, 1-(5-(9-((4-((1-(((4-(3,8-diazabicyclo[3.2.1]octan-3-yl)-7-(8-ethynyl-7-fluoro-3-hydroxynaphthalen-1-yl)-8-fluoropyrido[4,3-d]pyrimidin-2-yl)oxy)methyl)cyclopropyl)methyl)piperazin-1-yl)methyl)-3-azaspiro[5.5]undecane-3-carbonyl)-2-chlorophenyl)dihydropyrimidine-2,4(1H,3H)-dione] | 7.91 nM | 100% | 2.9 nM | 100% | 21.7 nM | 99.9% | 5.35 nM |
| CCc1c(F)ccc2cc(O)cc(-c3ncc4c(N5CC6CCC(C5)N6)nc(OCC5(CN6CCN(CC7CCC8(CC7)CCN(C(=O)c7ccc(OC)c(N9CCC(=O)NC9=O)c7)CC8)CC6)CC5)nc4c3F)c12 [Example 15, 1-(5-(9-((4-((1-(((4-(3,8-diazabicyclo[3.2.1]octan-3-yl)-7-(8-ethyl-7-fluoro-3-hydroxynaphthalen-1-yl)-8-fluoropyrido[4,3-d]pyrimidin-2-yl)oxy)methyl)cyclopropyl)methyl)piperazin-1-yl)methyl)-3-azaspiro[5.5]undecane-3-carbonyl)-2-methoxyphenyl)dihydropyrimidine-2,4(1H,3H)-dione] | 2.17 nM | 99.6% | 13 nM | 99.3% | 16.6 nM | 98.9% | 4.06 nM |
| CCc1cccc2cc(O)cc(-c3ncc4c(N5CC6CCC(C5)N6)nc(OCC5(CN6CCN(CC7CCC8(CC7)CCN(C(=O)c7ccc(OC)c(N9CCC(=O)NC9=O)c7)CC8)CC6)CC5)nc4c3F)c12 [Example 20, 1-(5-(9-((4-((1-(((4-(3,8-diazabicyclo[3.2.1]octan-3-yl)-7-(8-ethyl-3-hydroxynaphthalen-1-yl)-8-fluoropyrido[4,3-d]pyrimidin-2-yl)oxy)methyl)cyclopropyl)methyl)piperazin-1-yl)methyl)-3-azaspiro[5.5]undecane-3-carbonyl)-2-methoxyphenyl)dihydropyrimidine-2,4(1H,3H)-dione] | 19.9 nM | 100% | 0.57 nM | 100% | 15.1 nM | 100% | – |
| C#Cc1c(F)ccc2cc(O)cc(-c3ncc4c(N5CC6CCC(C5)N6)nc(OCC5(CN6CCN(CC7CCC8(CC7)CCN(C(=O)c7ccc(C)c(N9CCC(=O)NC9=O)c7)CC8)CC6)CC5)nc4c3F)c12 [Example 36, 1-(5-(9-((4-((1-(((4-(3,8-diazabicyclo[3.2.1]octan-3-yl)-7-(8-ethynyl-7-fluoro-3-hydroxynaphthalen-1-yl)-8-fluoropyrido[4,3-d]pyrimidin-2-yl)oxy)methyl)cyclopropyl)methyl)piperazin-1-yl)methyl)-3-azaspiro[5.5]undecane-3-carbonyl)-2-methylphenyl)dihydropyrimidine-2,4(1H,3H)-dione] | – | – | – | – | – | – | 1.19 nM |
| C#Cc1c(F)ccc2cc(O)cc(-c3ccc4c(N5CC6CCC(C5)N6)nc(OCC5(CN6CCN(CC7CCC8(CC7)CCN(C(=O)c7ccc(C)c(N9CCC(=O)NC9=O)c7)CC8)CC6)CC5)nc4c3F)c12 [Example 42, 1-(5-(9-((4-((1-(((4-(3,8-diazabicyclo[3.2.1]octan-3-yl)-7-(8-ethynyl-7-fluoro-3-hydroxynaphthalen-1-yl)-8-fluoroquinazolin-2-yl)oxy)methyl)cyclopropyl)methyl)piperazin-1-yl)methyl)-3-azaspiro[5.5]undecane-3-carbonyl)-2-methylphenyl)dihydropyrimidine-2,4(1H,3H)-dione] | 11.8 nM | 77.4% | 0.22 nM | 100% | 7.46 nM | 100% | 2.96 nM |
| C#Cc1cccc2cc(O)cc(-c3ncc4c(N5CC6CCC(C5)N6)nc(OCC5(CN6CCN(CC7CCC8(CC7)CCN(C(=O)c7ccc(Cl)c(N9CCC(=O)NC9=O)c7)CC8)CC6)CC5)nc4c3F)c12 [Example 57, 1-(5-(9-((4-((1-(((4-(3,8-diazabicyclo[3.2.1]octan-3-yl)-7-(8-ethynyl-3-hydroxynaphthalen-1-yl)-8-fluoropyrido[4,3-d]pyrimidin-2-yl)oxy)methyl)cyclopropyl)methyl)piperazin-1-yl)methyl)-3-azaspiro [5.5]undecane-3-carbonyl)-2-chlorophenyl)dihydropyrimidine-2,4(1H,3H)-dione] | 0.69 nM | 94.2% | 15 nM | 99.5% | 8.95 nM | 97.3% | 9.88 nM |
| C#Cc1c(F)ccc2cc(O)cc(-c3ncc4c(N5CC6CCC(C5)N6)nc(OCC(C)CN5CCN(CC6CCC7(CC6)CCN(C(=O)c6ccc(OC)c(N8CCC(=O)NC8=O)c6)CC7)CC5)nc4c3F)c12 (stereo not drawn) [Example 84, 1-(5-(9-((4-(3-((4-(3,8-diazabicyclo[3.2.1]octan-3-yl)-7-(8-ethynyl-7-fluoro-3-hydroxynaphthalen-1-yl)-8-fluoropyrido[4,3-d]pyrimidin-2-yl)oxy)-2-methylpropyl)piperazin-1-yl)methyl)-3-azaspiro[5.5]undecane-3-carbonyl)-2-methoxyphenyl)dihydropyrimidine-2,4(1H,3H)-dione] | 3.82 nM | 92.2% | 0.71 nM | 99.6% | 1.99 nM | 98.6% | 1.3 nM |
